In patent publication US20230233650A1, “NOVEL FATTY ACID MODIFIED UROCORTIN 2 DERIVATIVES AND THE USES THEREOF” (Novo Nordisk A/S, priority 2021, published 2023):
Numbered stars: 1 amine (or outer) side, 2 acyl side, 3 side chain; on linkers, the order of the positions; unused ones are H or OH. Side chains are listed from the residue outwards. Peptide text beside a SMILES is read from it. * marks the point of attachment. C20 diacid = O=C(O)CCCCCCCCCCCCCCCCCCC(=O)*; γGlu = O=C(O)[C@H](CCC(=O)[*:2])N[*:1]; AEEA = NCCOCCOCC(=O)O

Target: T1, Human CRF1 receptor (Homo sapiens, UniProt P34998)
T1 construct: host or cells: CHO-K1 (membrane preparation)
T1 sequence (P34998 24-415): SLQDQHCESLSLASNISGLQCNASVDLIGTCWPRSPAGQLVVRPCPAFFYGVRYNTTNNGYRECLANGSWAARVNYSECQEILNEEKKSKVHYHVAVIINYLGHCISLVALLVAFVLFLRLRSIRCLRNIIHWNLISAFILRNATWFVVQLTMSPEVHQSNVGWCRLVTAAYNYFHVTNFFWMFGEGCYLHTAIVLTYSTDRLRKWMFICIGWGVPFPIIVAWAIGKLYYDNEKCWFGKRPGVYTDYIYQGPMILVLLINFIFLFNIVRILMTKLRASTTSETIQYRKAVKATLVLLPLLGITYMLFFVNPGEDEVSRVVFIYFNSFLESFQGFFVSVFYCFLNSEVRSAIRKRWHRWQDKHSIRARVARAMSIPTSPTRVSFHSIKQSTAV
Experiment: CRF1 receptor CHO cell β-Arrestin recruitment assay (PathHunter)
Type: cell-based
Conditions: CHO-K1 cells, 0.1% ovalbumin
Description: The purpose of this investigation was to test the in vitro agonistic activity (potency) of the compounds of the invention to receptor subtype CRF1 and CRF2. […] The native, human Ucn1 and Ucn2 peptides were included as references. Assay principle: Activated G-protein coupled receptors (GPCRs) can interact with the Arrestin family of signalling proteins. The potency of peptides for CRF induced Arrestin recruitment is determined using the PathHunter Enzyme Fragment Complementation approach substantially as described in von […] et al., FASEB J., 2007, 3819, 26 and Hamdouchi et al., J. Med. Chem., 2016, 59, 10891-10916. The target GPCR is tagged with the small fragment of β-gal called ProLinkTM, a low affinity version of enzyme donor and co-expressed in cells stably expressing β-Arrestin tagged with enzyme acceptor. Activation of the GPCR stimulates binding of β-Arrestin to the ProLink-tagged GPCR, forcing complementation of ProLink and enzyme acceptor, resulting in the formation of an active β-gal enzyme. The resulting active enzyme hydrolyses substrate present in the PathHunter detection reagents to generate light. […] Plates were first incubated for 90 minutes in a 37° C., 5% CO2 incubator and then 5 μL of PathHunter detection reagent was added (DiscoveRx, 93-0001) and the plates were incubated at room temperature for 60 minutes after which the luminescence signal was measured (BMG […]). […]

Compound | EC50
CC[C@H](C)[C@H](NC(=O)[C@H](CCC(=O)O)NC(=O)[C@H](C)NC(=O)[C@H](CC(N)=O)NC(=O)[C@@H](NC(=O)[C@@H](NC(=O)[C@H](C)NC(=O)[C@H](CCC(N)=O)NC(=O)[C@H](CCC(=O)O)NC(=O)[C@H](CCCNC(=N)N)NC(=O)[C@H](C)NC(=O)[C@H](C)NC(=O)[C@H](CCCNC(=N)N)NC(=O)[C@H](C)NC(=O)[C@H](CCCNC(=N)N)NC(=O)[C@H](C)NC(=O)[C@H](CCC(N)=O)NC(=O)[C@H](CCC(=O)O)NC(=O)[C@H](CC(C)C)NC(=O)[C@H](CC(C)C)NC(=O)[C@@H](NC(=O)[C@H](CCC(N)=O)NC(=O)[C@H](CC(C)C)NC(=O)[C@H](CC(C)C)NC(=O)CNC(=O)[C@@H](NC(=O)[C@@H]1CCCN1C(=O)[C@@H](NC(=O)[C@H](CC(=O)O)NC(=O)[C@H](CC(C)C)NC(=O)[C@H](CO)NC(=O)[C@H](CC(C)C)NC(=O)[C@@H](NC(=O)[C@@H](NC(=O)[C@@H](N)CCCCNC(=O)COCCOCCNC(=O)COCCOCCNC(=O)CC[C@H](NC(=O)CC[C@H](NC(=O)CC[C@H](NC(=O)CCCCCCCCCCCCCCCCCCC(=O)O)C(=O)O)C(=O)O)C(=O)O)[C@@H](C)CC)C(C)C)C(C)C)[C@@H](C)CC)[C@@H](C)CC)[C@@H](C)O)[C@@H](C)O)C(=O)N[C@@H](CC(C)C)C(=O)N[C@@H](C)C(=O)N[C@@H](CCC(=O)O)C(=O)N[C@H](C(N)=O)C(C)C [Compound 3] (H-K([AEEA-AEEA-γGlu-γGlu-γGlu-C20 diacid])IVLSLDVPIGLLQILLEQARARAAREQATTNAEILAEV-NH2) | > 10 µM
CC[C@H](C)[C@H](NC(=O)[C@H](CCC(=O)O)NC(=O)[C@H](C)NC(=O)[C@H](CC(N)=O)NC(=O)[C@@H](NC(=O)[C@@H](NC(=O)[C@H](C)NC(=O)[C@H](CCC(N)=O)NC(=O)[C@H](CCC(=O)O)NC(=O)[C@H](CCCNC(=N)N)NC(=O)[C@H](C)NC(=O)[C@H](C)NC(=O)[C@H](CCCNC(=N)N)NC(=O)[C@H](C)NC(=O)[C@H](CCCNC(=N)N)NC(=O)[C@H](C)NC(=O)[C@H](CCC(N)=O)NC(=O)[C@H](CCC(=O)O)NC(=O)[C@H](CC(C)C)NC(=O)[C@H](CC(C)C)NC(=O)[C@@H](NC(=O)[C@H](CCC(N)=O)NC(=O)[C@H](CC(C)C)NC(=O)[C@H](CC(C)C)NC(=O)CNC(=O)[C@@H](NC(=O)[C@@H]1CCCN1C(=O)[C@@H](NC(=O)[C@H](CC(=O)O)NC(=O)[C@H](CC(C)C)NC(=O)[C@H](CO)NC(=O)[C@H](CC(C)C)NC(=O)[C@@H](NC(=O)[C@@H](NC(=O)[C@@H](N)CCCCNC(=O)COCCOCCNC(=O)COCCOCCNC(=O)CC[C@H](NC(=O)CC[C@H](NC(=O)CC[C@H](NC(=O)CCCCCCCCCCCCCCCCCCC(=O)O)C(=O)O)C(=O)O)C(=O)O)[C@@H](C)CC)C(C)C)C(C)C)[C@@H](C)CC)[C@@H](C)CC)[C@@H](C)O)[C@@H](C)O)C(=O)N[C@@H](CC(C)C)C(=O)N[C@@H](CCC(=O)O)C(=O)N[C@@H](CCCNC(=N)N)C(=O)N[C@H](C(N)=O)C(C)C [Compound 4] (H-K([AEEA-AEEA-γGlu-γGlu-γGlu-C20 diacid])IVLSLDVPIGLLQILLEQARARAAREQATTNAEILERV-NH2) | > 10 µM
